Source: patent publication US20250145606A1 (Arcus Biosciences, Inc., priority 2023, published 2025)
Read-outs that look alike come from different tables or passages of the source.

Experiments:
[1] = system: Phospho-KIT (Y703) in M07e cells; experiment: Phospho-KIT (Y703) cellular assay in M07e cells; assay type: cell-based; settings: M-07e
Method in brief: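 Serum-starved M07e cells preincubated 50 min at 37° C with 11-point half-log compound titration, then stimulated 10 min with SCF at 90.9 ng/mL final. Fixed, permeabilized cells stained for phospho-KIT Y703 and read by flow cytometry (live-gated geometric mean); IC50 by 4-parameter fit normalized to DMSO and positive control.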

PDGFRβ = PDGFRβ (Homo sapiens (Human), UniProt P09619); experiment: Inhibition of PDGFRβ kinase activity (HTRF KinEASE-TK); settings: biochemical, HTRF KinEASE-TK
Method in brief: (§1)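 Phosphorylation of biotinylated TK peptide read by HTRF (665/620 nm ratio) after 120 min at rt, following 1 h enzyme–compound preincubation. ATP (2× mix): 20 μM CSF1R, 16 μM c-Kit, 40 μM PDGFRβ, 1 μM PDGFRα; MgCl2 10 mM except c-Kit 5 mM. 22-point 1:2 titration; four-parameter IC50.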

c-Kit = c-Kit (Homo sapiens (Human), UniProt P10721); experiment: Inhibition of c-Kit kinase activity (HTRF KinEASE-TK); assay type: biochemical; settings: biochemical, HTRF KinEASE-TK
Method in brief: as §1

PDGFRα = PDGFRα (Homo sapiens (Human), UniProt P16234); experiment: Inhibition of PDGFRα kinase activity (HTRF KinEASE-TK); settings: biochemical, HTRF KinEASE-TK
Method in brief: as §1

CSF1R = CSF1R (Homo sapiens (Human), UniProt P07333); experiment: Inhibition of CSF1R kinase activity (HTRF KinEASE-TK); settings: biochemical, HTRF KinEASE-TK
Method in brief: as §1

[2] = Phospho-KIT (Y703), M07e cells, read-out: M07e Cell IC50
[3] = M07e cells, read-out: Phospho-KIT (Y703) cellular IC50

Chain of c-Kit (P10721 26-976): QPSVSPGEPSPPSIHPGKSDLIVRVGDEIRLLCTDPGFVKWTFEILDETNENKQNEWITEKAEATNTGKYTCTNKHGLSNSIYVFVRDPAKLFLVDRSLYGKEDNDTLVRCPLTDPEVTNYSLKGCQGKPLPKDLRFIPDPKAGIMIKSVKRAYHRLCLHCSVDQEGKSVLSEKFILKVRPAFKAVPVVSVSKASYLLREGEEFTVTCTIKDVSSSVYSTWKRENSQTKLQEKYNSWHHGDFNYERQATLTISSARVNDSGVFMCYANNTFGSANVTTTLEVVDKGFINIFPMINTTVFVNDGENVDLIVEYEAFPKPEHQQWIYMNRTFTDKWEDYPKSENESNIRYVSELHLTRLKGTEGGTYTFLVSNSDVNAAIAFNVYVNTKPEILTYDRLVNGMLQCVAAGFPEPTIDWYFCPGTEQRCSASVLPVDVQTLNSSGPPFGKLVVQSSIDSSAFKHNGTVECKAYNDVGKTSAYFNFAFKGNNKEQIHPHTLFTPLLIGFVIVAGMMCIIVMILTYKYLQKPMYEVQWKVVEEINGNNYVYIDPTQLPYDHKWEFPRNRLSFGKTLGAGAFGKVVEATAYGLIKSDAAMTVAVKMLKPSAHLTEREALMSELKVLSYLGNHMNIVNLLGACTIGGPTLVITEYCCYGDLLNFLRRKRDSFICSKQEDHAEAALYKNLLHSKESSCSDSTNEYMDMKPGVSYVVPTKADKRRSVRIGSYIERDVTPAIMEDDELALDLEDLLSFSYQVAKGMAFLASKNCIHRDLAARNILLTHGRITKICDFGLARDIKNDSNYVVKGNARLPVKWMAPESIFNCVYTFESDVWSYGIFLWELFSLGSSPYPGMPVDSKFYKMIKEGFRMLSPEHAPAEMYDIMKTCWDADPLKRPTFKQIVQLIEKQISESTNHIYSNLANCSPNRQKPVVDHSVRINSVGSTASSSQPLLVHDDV
Chain of PDGFRβ (P09619 33-1106): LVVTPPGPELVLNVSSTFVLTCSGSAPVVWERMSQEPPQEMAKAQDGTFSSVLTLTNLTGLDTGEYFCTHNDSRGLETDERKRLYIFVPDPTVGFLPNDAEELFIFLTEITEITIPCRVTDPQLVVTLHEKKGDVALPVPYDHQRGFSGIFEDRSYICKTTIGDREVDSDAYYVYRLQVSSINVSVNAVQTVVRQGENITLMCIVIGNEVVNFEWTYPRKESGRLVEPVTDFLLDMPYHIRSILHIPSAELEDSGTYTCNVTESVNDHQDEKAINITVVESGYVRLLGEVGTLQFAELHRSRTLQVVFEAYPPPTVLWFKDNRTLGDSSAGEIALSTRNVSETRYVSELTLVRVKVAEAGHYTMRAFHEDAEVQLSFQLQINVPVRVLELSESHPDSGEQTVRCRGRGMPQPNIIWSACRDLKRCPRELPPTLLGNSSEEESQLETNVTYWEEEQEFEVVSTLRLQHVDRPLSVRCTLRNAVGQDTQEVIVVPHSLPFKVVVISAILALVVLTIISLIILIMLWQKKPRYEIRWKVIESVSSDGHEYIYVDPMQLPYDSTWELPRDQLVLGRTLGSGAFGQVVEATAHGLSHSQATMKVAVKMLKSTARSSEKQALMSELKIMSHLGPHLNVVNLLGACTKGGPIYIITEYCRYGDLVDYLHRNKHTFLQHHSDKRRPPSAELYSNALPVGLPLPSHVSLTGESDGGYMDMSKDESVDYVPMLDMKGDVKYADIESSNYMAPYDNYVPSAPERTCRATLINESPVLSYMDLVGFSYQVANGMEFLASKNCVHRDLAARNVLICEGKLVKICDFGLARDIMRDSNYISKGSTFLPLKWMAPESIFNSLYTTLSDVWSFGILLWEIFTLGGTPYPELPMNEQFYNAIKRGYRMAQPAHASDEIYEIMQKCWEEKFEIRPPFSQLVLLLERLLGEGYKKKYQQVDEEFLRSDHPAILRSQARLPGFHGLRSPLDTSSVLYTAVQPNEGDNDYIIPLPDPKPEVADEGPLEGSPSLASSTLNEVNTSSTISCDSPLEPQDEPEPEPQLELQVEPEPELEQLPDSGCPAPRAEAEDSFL
Chain of CSF1R (P07333 20-972): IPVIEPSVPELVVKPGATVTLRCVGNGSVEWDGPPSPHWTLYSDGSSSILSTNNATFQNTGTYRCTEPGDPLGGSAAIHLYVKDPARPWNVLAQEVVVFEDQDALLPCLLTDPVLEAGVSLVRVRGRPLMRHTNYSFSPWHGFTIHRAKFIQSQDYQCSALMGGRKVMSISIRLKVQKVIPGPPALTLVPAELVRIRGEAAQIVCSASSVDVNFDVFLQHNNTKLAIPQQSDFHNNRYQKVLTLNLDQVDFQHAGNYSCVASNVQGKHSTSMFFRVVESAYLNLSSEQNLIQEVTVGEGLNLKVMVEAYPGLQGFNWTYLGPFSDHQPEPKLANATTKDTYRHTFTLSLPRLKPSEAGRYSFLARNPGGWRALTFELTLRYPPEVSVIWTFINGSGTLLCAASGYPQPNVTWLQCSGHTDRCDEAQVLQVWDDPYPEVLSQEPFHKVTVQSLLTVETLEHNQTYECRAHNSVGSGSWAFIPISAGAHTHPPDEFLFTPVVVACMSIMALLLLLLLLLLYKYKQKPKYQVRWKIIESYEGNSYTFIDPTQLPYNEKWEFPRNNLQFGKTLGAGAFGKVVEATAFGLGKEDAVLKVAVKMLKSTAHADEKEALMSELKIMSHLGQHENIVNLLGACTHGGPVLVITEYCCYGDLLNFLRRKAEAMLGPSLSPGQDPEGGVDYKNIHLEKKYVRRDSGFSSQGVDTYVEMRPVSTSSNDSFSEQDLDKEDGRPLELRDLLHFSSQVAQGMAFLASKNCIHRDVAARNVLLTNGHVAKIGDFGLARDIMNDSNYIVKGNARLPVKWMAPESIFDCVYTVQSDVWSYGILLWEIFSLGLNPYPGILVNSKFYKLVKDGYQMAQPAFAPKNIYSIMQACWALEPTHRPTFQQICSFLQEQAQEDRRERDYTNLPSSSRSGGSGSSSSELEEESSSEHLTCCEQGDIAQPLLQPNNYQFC
Chain of PDGFRα (P16234 24-1089): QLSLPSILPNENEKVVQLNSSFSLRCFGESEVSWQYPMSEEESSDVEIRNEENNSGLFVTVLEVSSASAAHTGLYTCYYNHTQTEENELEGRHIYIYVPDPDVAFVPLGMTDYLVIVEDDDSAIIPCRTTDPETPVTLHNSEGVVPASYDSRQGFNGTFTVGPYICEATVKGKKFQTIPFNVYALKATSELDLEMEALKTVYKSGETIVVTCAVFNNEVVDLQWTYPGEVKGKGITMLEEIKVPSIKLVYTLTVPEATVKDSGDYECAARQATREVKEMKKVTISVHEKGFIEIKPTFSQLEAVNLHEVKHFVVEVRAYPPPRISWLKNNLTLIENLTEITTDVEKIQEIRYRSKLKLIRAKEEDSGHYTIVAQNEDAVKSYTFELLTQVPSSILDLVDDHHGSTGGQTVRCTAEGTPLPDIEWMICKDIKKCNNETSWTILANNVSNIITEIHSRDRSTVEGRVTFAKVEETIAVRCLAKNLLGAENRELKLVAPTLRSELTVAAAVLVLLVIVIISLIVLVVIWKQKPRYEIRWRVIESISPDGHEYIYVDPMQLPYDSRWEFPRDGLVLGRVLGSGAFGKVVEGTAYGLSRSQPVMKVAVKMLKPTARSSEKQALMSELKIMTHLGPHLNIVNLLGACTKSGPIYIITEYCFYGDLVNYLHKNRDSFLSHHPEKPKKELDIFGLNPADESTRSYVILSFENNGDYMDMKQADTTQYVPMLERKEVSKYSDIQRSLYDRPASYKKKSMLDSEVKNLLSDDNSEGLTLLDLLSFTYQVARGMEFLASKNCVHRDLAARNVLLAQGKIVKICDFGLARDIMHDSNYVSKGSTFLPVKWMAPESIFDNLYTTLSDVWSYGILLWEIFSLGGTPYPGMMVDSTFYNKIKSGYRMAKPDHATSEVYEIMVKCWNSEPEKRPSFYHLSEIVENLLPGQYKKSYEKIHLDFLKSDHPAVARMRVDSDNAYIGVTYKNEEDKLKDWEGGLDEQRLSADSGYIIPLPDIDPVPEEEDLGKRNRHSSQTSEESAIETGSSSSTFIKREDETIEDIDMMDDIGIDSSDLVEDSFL

| Structure (SMILES) | IC50 [1, 2] [nM] | IC50 (PDGFRβ) [nM] | IC50 (c-Kit) [nM] | IC50 (PDGFRα) [nM] | IC50 (CSF1R) [nM] | IC50 [1, 3] [nM] | IC50 ([1]; read-out: M07e Cell IC50) [nM] |
| --- | --- | --- | --- | --- | --- | --- | --- |
| Cc1ncc(C(=O)Nc2cc(C(=O)Nc3cnc(N4CC[C@@H](O)C4)cn3)c(F)cc2C)s1 [Example 72, (R)—N-(4-fluoro-5-((5-(3-hydroxypyrrolidin-1-yl)pyrazin-2-yl)carbamoyl)-2-methylphenyl)-2-methylthiazole-5-carboxamide] | < 100 | > 1000 | < 100 | > 1000 | > 1000 |  |  |
| Cc1ncc(C(=O)Nc2cc(C(=O)NCc3ccc(F)c(F)c3)c(F)cc2C)s1 [Example 266, N-[5-[(3,4-difluorophenyl)methylcarbamoyl]-4-fluoro-2-methylphenyl]-2-methyl-1,3-thiazole-5-carboxamide] |  | > 1000 | < 100 | > 1000 | > 1000 | < 100 |  |
| Cc1ncc(C(=O)Nc2cc(C(=O)Nc3ccc(CC(F)(F)F)cn3)c(Cl)cc2C)s1 [Example 99, N-[4-chloro-2-methyl-5-[[5-(2,2,2-trifluoroethyl)pyridin-2-yl]carbamoyl]phenyl]-2-methyl-1,3-thiazole-5-carboxamide] |  | > 1000 | 100 to 1000 | > 1000 | > 1000 |  | 100 to 1000 |
| Cc1ncc(C(=O)Nc2cc(C(=O)Nc3ccnc(C(F)(F)F)c3)c(F)cc2C)s1 [Example 25, N-[4-Fluoro-2-methyl-5-[[2-(trifluoromethyl)pyridin-4-yl]carbamoyl]phenyl]-2-methyl-1,3-thiazole-5-carboxamide] | < 100 | 100 to 1000 | < 100 | > 1000 | > 1000 |  |  |
| Cc1ncc(C(=O)Nc2cc(C(=O)Nc3cnc(N4CCCC4)cn3)c(F)cc2C)s1 [Example 85, N-{5-[N-5-(1-pyrrolidinyl)-2-pyrazinylcarbamoyl]-4-fluoro-2-tolyl}-2-methyl-1,3-thiazole-5-carboxamide] | < 100 | > 1000 | < 100 | > 1000 | > 1000 |  |  |
| Cc1ncc(C(=O)Nc2cc(C(=O)Nc3ccnc(CC4CC4)n3)c(F)cc2C)s1 [Example 100, N-[5-[[2-(cyclopropylmethyl)pyrimidin-4-yl]carbamoyl]-4-fluoro-2-methylphenyl]-2-methyl-1,3-thiazole-5-carboxamide] | 100 to 1000 | > 1000 | 100 to 1000 | > 1000 | > 1000 |  |  |
| Cc1ncc(C(=O)Nc2cc(C(=O)Nc3ccc(OC4CC4)cn3)c(F)cc2Cl)s1 [Example 49, N-[2-chloro-5-[(5-cyclopropyloxypyridin-2-yl)carbamoyl]-4-fluorophenyl]-2-methyl-1,3-thiazole-5-carboxamide] | < 100 | > 1000 | < 100 | > 1000 | > 1000 |  |  |
| Cc1ncc(C(=O)Nc2cc(C(=O)NCc3ccc(F)cc3)c(F)cc2C)s1 [Example 262, N-[4-fluoro-5-[(4-fluorophenyl)methylcarbamoyl]-2-methylphenyl]-2-methyl-1,3-thiazole-5-carboxamide] |  | > 1000 | < 100 | > 1000 | > 1000 | < 100 |  |
| Cc1ncc(C(=O)Nc2cc(C(=O)NCc3ccc(F)cc3F)c(F)cc2C)s1 [Example 263, N-[5-[(2,4-difluorophenyl)methylcarbamoyl]-4-fluoro-2-methylphenyl]-2-methyl-1,3-thiazole-5-carboxamide] |  | > 1000 | < 100 | > 1000 | > 1000 | < 100 |  |
| COC1CN(c2cnc(NC(=O)c3cc(NC(=O)c4cnc(C)s4)c(C)cc3F)cn2)C1 [Example 73, N-(4-fluoro-5-((5-(3-methoxyazetidin-1-yl)pyrazin-2-yl)carbamoyl)-2-methylphenyl)-2-methylthiazole-5-carboxamide] | < 100 | > 1000 | < 100 | > 1000 | > 1000 |  |  |
| CC(C)Oc1ccc(NC(=O)c2cc(NC(=O)c3cnc(N)s3)c(Cl)cc2F)nc1 [Example 207, 2-Amino-N-[2-chloro-4-fluoro-5-[(5-propan-2-yloxypyridin-2-yl)carbamoyl]phenyl]-1,3-thiazole-5-carboxamide] | < 100 | > 1000 | < 100 | > 1000 | 100 to 1000 |  |  |
| COC[C@@H]1CCCN1c1cnc(NC(=O)c2cc(NC(=O)c3cnc(C)s3)c(C)cc2F)cn1 [Example 97, N-[4-fluoro-5-[[5-[(2S)-2-(methoxymethyl)pyrrolidin-1-yl]pyrazin-2-yl]carbamoyl]-2-methylphenyl]-2-methyl-1,3-thiazole-5-carboxamide] | 100 to 1000 | > 1000 | < 100 | > 1000 | > 1000 |  |  |
| Cc1cc(F)c(C(=O)Nc2ccc(F)cc2)cc1NC(=O)c1cnc(N)s1 [Example 233, 2-Amino-N-[4-fluoro-5-[(4-fluorophenyl)carbamoyl]-2-methylphenyl]-1,3-thiazole-5-carboxamide] | < 100 | > 1000 | < 100 | > 1000 | > 1000 |  |  |

The next lines start with results.

| IC50 [1, 2] [nM] | IC50 (PDGFRβ) [nM] | IC50 (c-Kit) [nM] | IC50 (PDGFRα) [nM] | IC50 (CSF1R) [nM] | IC50 [1, 3] [nM] | Structure (SMILES) | IC50 ([1]; read-out: M07e Cell IC50) [nM] |
| --- | --- | --- | --- | --- | --- | --- | --- |
| < 100 | > 1000 | < 100 | > 1000 | > 1000 |  | CCc1ccc(NC(=O)c2cc(NC(=O)c3cnc(N)s3)c(F)cc2F)nc1 [Example 214, 2-Amino-N-[5-[(5-ethylpyridin-2-yl)carbamoyl]-2,4-difluorophenyl]-1,3-thiazole-5-carboxamide] |  |
| < 100 | > 1000 | < 100 | > 1000 | > 1000 |  | Cc1ncc(C(=O)Nc2cc(C(=O)Nc3cnc(N4CCC[C@H]4C(F)(F)F)cn3)c(F)cc2C)s1 [Example 95, N-[4-fluoro-2-methyl-5-[[5-[(2S)-2-(trifluoromethyl)pyrrolidin-1-yl]pyrazin-2-yl]carbamoyl]phenyl]-2-methyl-1,3-thiazole-5-carboxamide] |  |
|  | > 1000 | < 100 | > 1000 | > 1000 | < 100 | Cc1ncc(C(=O)Nc2cc(C(=O)NCc3ccc(C(F)(F)F)cc3)c(F)cc2C)s1 [Example 268, N-[4-fluoro-2-methyl-5-[[4-(trifluoromethyl)phenyl]methylcarbamoyl]phenyl]-2-methyl-1,3-thiazole-5-carboxamide] |  |
| < 100 | 100 to 1000 | < 100 | > 1000 | 100 to 1000 |  | Nc1ncc(C(=O)Nc2cc(C(=O)Nc3ccc(C4CC4)nn3)c(F)cc2Cl)s1 [Example 201, 2-Amino-N-[2-chloro-5-[(6-cyclopropylpyridazin-3-yl)carbamoyl]-4-fluorophenyl]-1,3-thiazole-5-carboxamide] |  |
| < 100 | > 1000 | 100 to 1000 | > 1000 | > 1000 |  | Cc1ncc(C(=O)Nc2cc(C(=O)NCc3ccccc3F)c(F)cc2C)s1 [Example 51, N-(4-fluoro-5-((2-fluorobenzyl)carbamoyl)-2-methylphenyl)-2-methylthiazole-5-carboxamide] |  |
| < 100 | > 1000 | < 100 | > 1000 | > 1000 |  | Cc1ncc(C(=O)Nc2cc(C(=O)Nc3cnc(N4CCC[C@H]4C)cn3)c(F)cc2C)s1 [Example 84, N-(5-{N-5-[(R)-2-methyl-1-pyrrolidinyl]-2-pyrazinylcarbamoyl}-4-fluoro-2-tolyl)-2-methyl-1,3-thiazole-5-carboxamide] |  |
| < 100 | 100 to 1000 | < 100 | > 1000 | > 1000 |  | Cc1cc(F)c(C(=O)Nc2ccc(O[C@@H]3CCOC3)cn2)cc1NC(=O)c1cnc(N)s1 [Example 198, 2-Amino-N-[4-fluoro-2-methyl-5-[[5-[(3R)-oxolan-3-yl]oxypyridin-2-yl]carbamoyl]phenyl]-1,3-thiazole-5-carboxamide] |  |
| < 100 | > 1000 | < 100 | > 1000 | > 1000 |  | Cc1ncc(C(=O)Nc2cc(C(=O)Nc3ccc(OC(F)(F)F)cn3)c(F)cc2C)s1 [Example 39, N-[4-fluoro-2-methyl-5-[[5-(trifluoromethoxy)pyridin-2-yl]carbamoyl]phenyl]-2-methyl-1,3-thiazole-5-carboxamide] |  |
| < 100 | > 1000 | < 100 | > 1000 | > 1000 |  | CO[C@@H]1CCN(c2cnc(NC(=O)c3cc(NC(=O)c4cnc(C)s4)c(C)cc3F)cn2)C1 [Example 74, (R)—N-(4-fluoro-5-((5-(3-methoxypyrrolidin-1-yl)pyrazin-2-yl)carbamoyl)-2-methylphenyl)-2-methylthiazole-5-carboxamide] |  |
| < 100 | > 1000 | < 100 | > 1000 | > 1000 |  | Cc1ncc(C(=O)Nc2cc(C(=O)Nc3cnc(OC4CC(F)(F)C4)cn3)c(F)cc2C)s1 [Example 32, N-[5-[[5-(3,3-difluorocyclobutyl)oxypyrazin-2-yl]carbamoyl]-4-fluoro-2-methylphenyl]-2-methyl-1,3-thiazole-5-carboxamide] |  |
